US20070027143A1, “Novel substituted 2,3-benzodiazepine derivatives” (priority 2003, published 2007)
Like-named read-outs stand apart in the source and are kept apart here.

Columns and labels:
AMPA receptors = assay: Inhibition of AMPA induced spreading depression in isolated chicken retina; assay type: cell-based; conditions: AMPA (5 μM)
Description: (§1) In the first model the spreading depression caused by glutamate agonists (i.e., AMPA or kainate) was studied, while in the second one the transmembrane ion-current induced by the activation of the AMPA/kainate receptors was measured directly.
Inhibition of AMPA Induced “Spreading Depression” in Isolated Chicken Retina—
The AMPA antagonistic effect of the compounds of formula (I) or (II) was studied in the in vitro “spreading depression” model (Sheardown Brain Res. 607:189 (1993)). The AMPA antagonists prolong the latency of the development of the “spreading depression” caused by AMPA (5 μM).

AMPA/kainate receptors = assay: Inhibition of AMPA induced whole-cell current in acutely isolated cerebellar Purkinje cells (patch clamp); assay type: cell-based; conditions: 5 μM AMPA, read-out: Inhibition of the ion-currents caused by 5 μM AMPA, IC50
Description: as §1
The activity of the compounds of the present invention was studied on acutely isolated cerebellar Purkinje cells by measuring the whole-cell current induced by 5 μM AMPA according for example to the method described by Bleakman et al (Neuropharmacology 12:1689 (1996)).

CD1 mice [1] = assay: Anticonvulsant activity, maximal electroshock seizure (MES) test; assay type: in vivo; conditions: Mus musculus
Description: (§2) The anti-seizure activity of some of the compounds of the present invention was measured using the electroshock test (J. Pharmacol. Exp. Ther. 106:319 (1952)) and the results are shown in Table 3. The spasmolytic activity of the compounds of the present invention was investigated by using e.g., pentetrazole (J. Pharmacol. Exp. Ther. 108:168 (1953)), strychnine (J. Pharmacol. Exp. Ther. 129:75 (1960)), bemegrid, nicotine, bicuculline, 4-aminopyridine and mercapto-propionic acid for inducing the clonic-tonic seizures and lethality. The investigated compounds were administered orally in three doses using 10 male CD1 mice/dose, usually 60 min before the induction of seizures.

CD1 mice [2] = assay: Anticonvulsant activity, pentetrazole induced seizures; assay type: in vivo; conditions: Mus musculus, read-out: Pentetrazol ED50
Description: as §2

CD1 mice [3] = assay: Anticonvulsant activity, strychnine induced seizures; assay type: in vivo; conditions: Mus musculus, read-out: Strychnine ED50
Description: as §2

CD1 mice [4] = assay: Anticonvulsant activity, bemegride induced seizures; assay type: in vivo; conditions: Mus musculus, read-out: Bemegride ED50
Description: as §2

CD1 mice [5] = assay: Anticonvulsant activity, bicuculline induced seizures; assay type: in vivo; conditions: Mus musculus, read-out: Bicuculline ED50
Description: as §2

CD1 mice [6] = assay: Anticonvulsant activity, nicotine induced seizures; assay type: in vivo; conditions: Mus musculus; po.
Description: as §2

CD1 mice [7] = assay: Anticonvulsant activity, 4-aminopyridine induced seizures; assay type: in vivo; conditions: Mus musculus, read-out: 4-AP ED50
Description: as §2

CD1 mice [8] = assay: Anticonvulsant activity, 3-mercapto-propionic acid induced seizures; assay type: in vivo; conditions: Mus musculus, read-out: 3-MPA ED50
Description: as §2

CD1 mice [9] = assay: Muscle relaxant activity, inclined screen test; assay type: in vivo; conditions: Mus musculus, ip
CD1 mice [10] = assay: Muscle relaxant activity, rotarod test; assay type: in vivo; conditions: Mus musculus, ip
Lewis rats [11] = assay: Autoimmune encephalomyelitis model, neurological (clinical) symptoms; assay type: in vivo; conditions: Rattus norvegicus, read-out: Neurological symptoms (change compared to controls, %); for change in vivo at 30 mg/kg: ip, 30 mg/kg ip.; for change in vivo at 7.5 mg/kg: po, 7.5 mg/kg p.o.
Description: The compounds were administered intraperitoneally twice a day for 8 days, starting on day 10 after immunization and with an observation period until symptoms were present. 5-15 animals were used in each group. Their weights were 160-180 g (Lewis rats, female) and 180-220 g (Lewis rats, male). The activity of the compounds was determined according to the symptom score values, and compared to those of the control group (see Table 6). Histopathological investigations were carried out on the brain stem, the spinal cord, and the sciatic nerve (Gijbels et al., J. Clin. Invest. 94:2177 (1994)) using 5-10 animal/group.
Compounds of the invention were further investigated in the autoimmune encephalomyelitis model in rats as outlined in this description before, with the variance that 10 animals were used in each group, of weights 140-160 g (Lewis rats, female).

CD1 mice [12] = assay: Anti-tremor effect, oxotremorine induced tremor; assay type: in vivo; conditions: Mus musculus; po., Litchfield-Wilcoxon, limits in brackets; read-out: ED50, tremor induced by Oxotremorin 1 mg/kg ip.
CD1 mice [13] = assay: Anti-tremor effect, GYKI 20039 induced tremor; assay type: in vivo; conditions: Mus musculus; po., Litchfield-Wilcoxon, limits in brackets; read-out: ED50, tremor induced by GYKI 20039 10 mg/kg ip.
CD1 mice [14] = assay: Anti-tremor effect, harmaline induced tremor; assay type: in vivo; conditions: po., Litchfield-Wilcoxon, limits in brackets
BN rats [15] = assay: Bronchial hyperresponsiveness of ovalbumin sensitized, antigen challenged BN rats (tracheal rings, acetylcholine); assay type: in vivo; conditions: 3.0 mg/kg po, 2 hours pre-challenge, mean ± SE
Source text: (§3) Bronchial hyperresponsiveness (BHR) and airway eosinophilia (AEP) are characteristic features of bronchial asthma. BHR is typified by an exaggerated response to a wide variety of stimuli that can induce an increased resistance to airflow in the airways. AEP is a result of prolonged eosinophil infiltration, mast cell, and T cell activation in the airways. In actively (e.g., ovalbumin) immunized rats (e.g., Brown Norway [BN] strain), repeated sensitization followed by antigenic challenge results in lung eosinophilia and bronchial hyperresponsiveness to different spasmogens (e.g., acetylcholine). This is the most frequently employed model for studying potential anti-asthmatic effects of new chemical entities.
(§4) BN rats were actively immunized with allergen (ovalbumin). On day one, rats were sensitized with the subcutaneous administration of ovalbumin suspended in Al(OH)3 (2.5 μg ovalbumin +20 mg Al(OH)3 in 0.5 ml saline). Booster injections (same dose and same route) were given at day 14 and 21. Simultaneously at each occasion 0.25 ml of Bordatella pentussis vaccine was injected intraperitoneally. On day 28, animals were challenged by inhalation of the antigen (vaporized 1% OVA solution for 1 hour). Test compounds were administered orally 2 hours pre-challenge.
(§5) 48 hours following challenge, they were sacrificed by an overdose of urethane (4-5 ml of 15% urethane given i.p.), bronchoalveolar lavage fluid (BALF) was obtained, and tracheae dissected from the animals. Eosinophil cell count (cells/ml BALF) was determined manually using a selective stain for eosinophils and counting the cells in a Buerker chamber. BHR was determined using tracheal rings suspended in an organ bath. After an equilibration period of 30 minutes, cumulative concentration response curves to acetylcholine were determined. Maximal response of control (unchallenged, non-treated) tracheal rings is obtained at 10^−3 M acetylcholine. The height of this response is defined as 100%. All other contractions are expressed as a percentage and related to the control response.

BN rats [16] = assay: Airway eosinophilia of ovalbumin sensitized, antigen challenged BN rats (BALF eosinophil count); assay type: in vivo; conditions: 3.0 mg/kg po, 2 hours pre-challenge, mean ± SE
Source text: as §3, §4, §5

[17] = system: tumor cell types (colon adenocarcinoma, astrocytoma, breast carcinoma, lung carcinoma and neuroblastoma); conditions: Rzeski et al.; cited from earlier work
Lewis rats [18] = assay: Autoimmune encephalomyelitis model, neurological (clinical) symptoms; assay type: in vivo; conditions: Rattus norvegicus, po, 3.75 mg/kg p.o., female rats, read-out: Neurological symptoms (change compared to controls, %)
[19] = 0.5 h, po., 30′, read-out: MES 30′ ED50
[20] = 1 h, po., 60 min before induction, read-out: MES (MES 60′) ED50

SMILES | IC50 (AMPA receptors) | IC50 (AMPA/kainate receptors) | ED50 (CD1 mice [6]) | ED50 (CD1 mice [9]) | ED50 (CD1 mice [10]) | ED50 (CD1 mice [12]) | ED50 (CD1 mice [13]) | ED50 (CD1 mice [1]; [19]) | ED50 (CD1 mice [1]; [20]) | ED50 (CD1 mice [2]; po.) | ED50 (CD1 mice [3]; po.) | ED50 (CD1 mice [4]; po.) | ED50 (CD1 mice [5]; po.) | ED50 (CD1 mice [7]; po.) | ED50 (CD1 mice [8]; po.) | change in vivo at 7.5 mg/kg (Lewis rats [11]; female rats, 0-8 day) | change in vivo at 7.5 mg/kg (Lewis rats [11]; female rats, 0-14 day) | melting point | change in vivo at 3.75 mg/kg (Lewis rats [18]; 0-8 day) | change in vivo at 3.75 mg/kg (Lewis rats [18]; 0-14 day) | also measured
CC1=NN=C(c2ccc(N)cc2)c2cc3c(cc2C1)OCO3 [GYKI 52466, 5-(4-aminophenyl)-8-methyl-9H-1,3-dioxolo[4,5-h][2,3]benzodiazepine, reference compound] | 9500 nM | 8800 nM | 71.8 mg/kg | 47.1 mg/kg | 25.1 mg/kg | 20.5 mg/kg | 37.1 mg/kg |  |  |  |  |  |  |  |  |  |  |  |  |  | ED50 (CD1 mice [1]; po, 0.5 h, read-out: MES 30′ ED50): 21.9 mg/kg; ED50 (CD1 mice [1]; po, 1 h, read-out: MES (MES 60′) ED50): 37.4 mg/kg; ED50 (CD1 mice [2]; po): 120 mg/kg; ED50 (CD1 mice [3]; po): 86.7 mg/kg; ED50 (CD1 mice [4]; po): 71.9 mg/kg; ED50 (CD1 mice [5]; po): 35 mg/kg; ED50 (CD1 mice [7]; po): 43 mg/kg; ED50 (CD1 mice [8]; po): 47 mg/kg; change in vivo at 30 mg/kg (Lewis rats [11]; female rats, 0-8 day): -45%; change in vivo at 30 mg/kg (Lewis rats [11]; female rats, 0-14 day): -4%; change in vivo at 30 mg/kg (Lewis rats [11]; male rats, 0-8 day): -1%; change in vivo at 30 mg/kg (Lewis rats [11]; male rats, 0-14 day): -1%; ED50, tremor induced by Harmaline 40 mg/kg ip. (CD1 mice [14]): 38.5(25.7-57.9) mg/kg po.; MAX: relative contraction compared to the control at a maximal Ach concentration (BN rats [15]): 135 ± 105%; BALF eosinophil number (BN rats [16]): 0.91 ± 0.13 ×10^6/ml; Growth of selected tumor cell types [17]: inhibit growth
COCc1nnc(N2N=C(c3ccc(N)c(C)c3)c3cc4c(cc3C[C@H]2C)OCO4)s1 [Example 168, (R)-5-(4-Amino-3-methylphenyl)-8-methyl-7-(5-methoxymethyl-1,3,4-thiadiazol-2-yl)-8,9-dihydro-7H-1,3-dioxolo-[4,5-h][2,3]benzodiazepine] | 82 nM | 11 nM | 17.7 mg/kg | 3.58 mg/kg | 0.8 mg/kg | 3.29 mg/kg | 4.11 mg/kg | 2.21 mg/kg | 4.49 mg/kg | 6.9 mg/kg | 10 mg/kg | 6.7 mg/kg | 10.6 mg/kg | 4.6 mg/kg | 4.62 mg/kg | -55% | -56% | 171 to 172 °C | -16% | -23% | 
CCCc1nnc(N2N=C(c3ccc(N)c(C)c3)c3cc4c(cc3C[C@H]2C)OCO4)s1 [Example 166, (R)-5-(4-Amino-3-methylphenyl)-8-methyl-7-(5-propyl-1,3,4-thiadiazol-2-yl)-8,9-dihydro-7H-1,3-dioxolo[4,5-h][2,3]benzodiazepine] | 201 nM | 28 nM | 21.8 mg/kg | 3.27 mg/kg | 0.86 mg/kg | 2.74 mg/kg | 4.54 mg/kg | 4.54 mg/kg | 4.01 mg/kg | 9.18 mg/kg | 7.29 mg/kg | 7.77 mg/kg | 13.3 mg/kg | 6.81 mg/kg | 9.92 mg/kg | -51% | -53% | 150 to 154 °C | -6% | -9% | 
